Experimental data reported in patent US20060111327A1, “Derivatives of triptolide having a high immunosuppressive effect and high water solubility, and uses thereof” (priority 2002, published 2006).
“And” between values parts separate entries of the source, which are not always exact repeats. Identical values can stand only once. Like-named read-outs stand apart in the source and are kept apart here.

Tests used:
[1] = test system: cotton ball granulation in rat; design: species or system Wister rats; conditions: in vivo
[2] = test system: Kunming mice; conditions: both, mouse, in vivo, iv
[3] = in vivo; conditions: both, Kunming, mouse
[4] = physchem; conditions: water
[5] = test system: IL-2; assay type: cell-based, rat
[6] = test system: IL-6; assay type: cell-based, rat
[7] = test system: iNOS; assay type: cell-based, rat
[8] = test system: rat adjuvant-induced arthritis; design: species or system SD rats; conditions: in vivo
[9] = test system: rat adjuvant-induced arthritis; conditions: in vivo
[10] = test system: transplanted heart (C57BL mouse heart grafted into balb/c mouse); conditions: in vivo
[11] = Cell membrane permeability (unpublished experimental data); assay type: in vitro ADME; conditions: our unpublished experimental data
[12] = background statement; cited from earlier work
[13] = in vivo; cited from earlier work

**Q.** With `C[C@]12CCC(=O)C=C1CC[C@@H]1[C@@H]2[C@@H](O)C[C@@]2(C)[C@H]1CC[C@]2(O)C(=O)CO` [Hydrocordisone, reference compound] as the molecule, how does the Inhibition of swelling [1] read?
**A.** Its Inhibition of swelling is 42.2%.

**Q.** What about the “effect against cotton ball granulation” value [1] of the same molecule?
**A.** The value was “significantly decreased weight of cotton ball granulation”.

**Q.** Which Inhibition of swelling [1] does the source give for `CC(C)[C@]12OP(=O)([O-])O[C@H]1[C@]13O[C@H]1C[C@H]1C4=C(CC[C@]1(C)[C@@]31OC1[C@H]2SC#N)C(=O)OC4.[Na+]` (stereo partly drawn) [WDY1, sodium 12-β-thiocyano triptolide-13-α-14-β-phosphate] here?
**A.** Its Inhibition of swelling is 45.7% and 59.3% and 46.3%.

**Q.** What about the “effect against cotton ball granulation” value [1] of the same molecule?
**A.** Its value is “significant effect”.

**Q.** What about the “Death No. of mice” value ([2]; 98 mg/kg) of the same molecule?
**A.** Its value is 0.

**Q.** And the Mortality ([2]; 98 mg/kg)?
**A.** Its Mortality is 0%.

**Q.** What about the “Death No. of mice” value ([2]; 109 mg/kg) of the same molecule?
**A.** Its value is 1.

**Q.** What about the Mortality ([2]; 109 mg/kg) of the same molecule?
**A.** Its Mortality is 10%.

**Q.** And the “Death No. of mice” value ([2]; 122 mg/kg)?
**A.** The value was 4.

**Q.** And the Mortality ([2]; 122 mg/kg)?
**A.** The Mortality was 40%.

**Q.** And the “Death No. of mice” value ([2]; 135 mg/kg)?
**A.** The value was 8.

**Q.** What about the Mortality ([2]; 135 mg/kg) of the same molecule?
**A.** Its Mortality is 80%.

**Q.** What about the “Death No. of mice” value ([2]; 150 mg/kg) of the same molecule?
**A.** The value was 9.

**Q.** And the Mortality ([2]; 150 mg/kg)?
**A.** The Mortality was 90%.

**Q.** What about the LD50 ([3]; acute toxicity LD50) of the same molecule?
**A.** The LD50 was 126 mg/kg.

**Q.** What about the LD50 ([3]; iv, 95% limit of LD50) of the same molecule?
**A.** Its LD50 is 119 to 133 mg/kg.

**Q.** And the LD50 ([3]; iv, LD50)?
**A.** The LD50 was 126 mg/kg.

**Q.** What about the solubility [4] of the same molecule?
**A.** The solubility was over 100 mg/mL.

**Q.** With `CC(C)[C@]12OP(=O)([O-])O[C@H]1[C@]13O[C@H]1C[C@H]1C4=C(CC[C@]1(C)[C@@]31OC1[C@H]2Cl)C(=O)OC4.[Na+]` (stereo partly drawn) [WDY2, sodium 12-β-chlorotriptolide-13-α-14-13-phosphate] as the molecule, how does the solubility [4] read?
**A.** Its solubility is over 100 mg/mL.

**Q.** With `CC(C)[C@]12O[C@H]1C1O[C@]13[C@]1(O[C@H]1C[C@H]1C4=C(CC[C@@]13C)C(=O)OC4)[C@@H]2O[PH](=O)[O-].[Na+]` (stereo partly drawn) [WDY4, sodium triptolide-14-β-phosphite] as the molecule, how does the “inhibition of LPS- or PHA-induced IL-2 mRNA expression” value [5] read?
**A.** Its value is “completely inhibited”.

**Q.** And the “inhibition of mRNA expression of IL-6” value [6]?
**A.** The value was “completely”.

**Q.** And the “inhibition of mRNA expression of iNOS” value [7]?
**A.** Its value is “completely”.

**Q.** And the solubility [4]?
**A.** The solubility was over 100 mg/mL.

**Q.** Which results are given for `CC(C)[C@@]1(O)[C@H](SC#N)C2O[C@]23[C@]2(O[C@H]2C[C@H]2C4=C(CC[C@@]23C)C(=O)OC4)[C@@H]1OC(=O)CCC(=O)O` (stereo partly drawn) [WDY6, 12-β-thiocyano-13-α-hydroxy triptolide-14-β-succinic acid mono-ester]?
**A.** Inhibition of swelling [1]: 42.6% and 47.1% and 49.0%; effect against cotton ball granulation [1]: significant effect; effect on thickness of the contralateral paw (left hind paw) [8]: significantly decreased; effect in the treatment of adjuvant-induced rat arthritis [9]: significant effect; Average survival time [10]: 12.7 days; body weight and appetite of treated mice [10]: did not show a decrease of body weight and their appetites were normal

**Q.** Which Inhibition of swelling [1] does the source give for `CC(C)[C@]12O[C@H]1C1O[C@]13[C@]1(O[C@H]1C[C@H]1C4=C(CC[C@@]13C)C(=O)OC4)[C@@H]2OP(=O)([O-])[O-].[Na+].[Na+]` (stereo partly drawn) [WDY7, disodium triptolide-14-β-phosphate] here?
**A.** Its Inhibition of swelling is 41.5% and 55.6% and 56.8%.

**Q.** And the “effect against cotton ball granulation” value [1]?
**A.** Its value is “significant effect”.

**Q.** And the “effect in the treatment of adjuvant-induced rat arthritis” value [9]?
**A.** Its value is “significant effect”.

**Q.** What about the Average survival time [10] of the same molecule?
**A.** Its Average survival time is 13.8 days.

**Q.** What about the “anti-rejection effect” value [10] of the same molecule?
**A.** Its value is “significant anti-rejection effect”.

**Q.** What about the “body weight and appetite of treated mice” value [10] of the same molecule?
**A.** The value was “did not show a decrease of body weight and their appetites were normal”.

**Q.** What about the LD50 ([3]; acute toxicity LD50) of the same molecule?
**A.** The LD50 was 0.8 mg/kg.

**Q.** What about the solubility [4] of the same molecule?
**A.** The solubility was over 100 mg/mL.

**Q.** Which “cell membrane permeability” value [11] does the source give for `CC(C)[C@]12O[C@H]1[C@@H]1O[C@]13[C@]1(O[C@H]1C[C@H]1C4=C(CC[C@@]13C)C(=O)OC4)[C@@H]2O` [triptolide] here?
**A.** Its value is “Low cell membrane permeability”.

**Q.** And the “water solubility” value [12]?
**A.** Its value is “Low water solubility”.

**Q.** What about the LD50 [13] of the same molecule?
**A.** The LD50 was 0.85 mg/kg body weight.
